Results as given in patent US20240254087A1, “SELECTIVE, PARTIAL, AND ARRESTIN-BIASED 5-HT2A AGONISTS WITH UTILITY IN VARIOUS DISORDERS” (Saint Joseph's University, priority 2021, published 2024).

Each molecule was assayed against T1, 5-HT2A (Homo sapiens, UniProt P28223) (assay: cell-based). Conditions: BRET, mean ± SEM; read-out: 5-HT2A Gq dissociation pEC50 (converted).
Parameters: expressed in transfected cells; host or cells: HEK293T, transient
Experimental: (§1) After at least 18-24 hours, transfected cells were plated in poly-lysine coated 96-well white clear bottom cell culture plates in DMEM containing 1% dialyzed FBS at a density of 25-40,000 cells in 200 μL per well and incubated overnight. After approximately 20-24 hours, media was decanted and cells were washed with 60 μL of drug buffer (1×HBSS, 20 mM HEPES, pH 7.4), followed by 60 μL of drug buffer and pre-incubated in a humidified atmosphere at 37° C. before receiving drug stimulation. Drug stimulation was induced by adding 30 μL of a solution of drug (3X) diluted in McCorvy buffer (1×HBSS, 20 mM HEPES, pH 7.4, supplemented with 0.3% BSA fatty acid free, 0.03% ascorbic acid) and plates were incubated at the indicated time and temperature. Fifteen minutes before reading, 10 μL of the RLuc substrate, either coelenterazine h for β-Arrestin recruitment BRET^1 or coelenterazine 400a for Gq dissociation BRET^2 (Prolume/Nanolight, 5 μM final concentration) was addedper well. […] The BRET ratios of fluorescence/luminescence were calculated per well and were plotted as a function of drug concentration using Graphpad Prism 8 (Graphpad Software Inc., San Diego, CA).

T1 sequence (P28223 whole entry): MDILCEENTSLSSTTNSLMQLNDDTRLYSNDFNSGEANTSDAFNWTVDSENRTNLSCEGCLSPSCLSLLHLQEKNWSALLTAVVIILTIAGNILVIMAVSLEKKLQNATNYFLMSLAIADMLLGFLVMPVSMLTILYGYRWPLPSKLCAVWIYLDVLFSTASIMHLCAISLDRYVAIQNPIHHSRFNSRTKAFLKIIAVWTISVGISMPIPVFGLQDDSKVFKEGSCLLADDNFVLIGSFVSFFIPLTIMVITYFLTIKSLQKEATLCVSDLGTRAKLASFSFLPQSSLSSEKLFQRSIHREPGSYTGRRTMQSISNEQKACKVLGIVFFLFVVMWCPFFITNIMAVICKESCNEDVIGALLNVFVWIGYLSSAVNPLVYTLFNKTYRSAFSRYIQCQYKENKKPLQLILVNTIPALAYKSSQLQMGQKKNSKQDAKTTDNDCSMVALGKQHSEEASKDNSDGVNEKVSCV

Row | SMILES | EC50 [µM]
1 | COc1cc(OC)c(OC)cc1CCNCc1cccc2ccccc12 [(38)] | 0.0055
2 | COc1cc2c(cc1CCNCc1cccc3ccccc13)OCO2 [(39), [2-(6-methoxy-2H-1,3-benzodioxol-5-yl)ethyl][(naphthalen-1-yl)methyl]amine] | 0.0155
3 | COc1cc(OC)c(OC)cc1CCNCc1ccccc1-c1cccs1 [(59), N-(2-(thiophen-2-yl)benzyl)-2-(2,4,5-trimethoxyphenyl)-ethan-1-amine] | 0.024
4 | COc1cc(OC)c(OC)cc1CCNCc1cccc(F)c1F [(65)] | 0.0646

Same assay, conditions: read-out: 5-HT2A Gq Emax (% 5-HT), BRET, mean ± SEM

Row | SMILES | Emax [%]
5 | COc1cc(OC)c(OC)cc1CCNCc1cccc2ccccc12 [(38)] | 24.3 ± 1.2
6 | COc1cc2c(cc1CCNCc1cccc3ccccc13)OCO2 [(39), [2-(6-methoxy-2H-1,3-benzodioxol-5-yl)ethyl][(naphthalen-1-yl)methyl]amine] | 26.4 ± 2
7 | COc1cc(OC)c(OC)cc1CCNCc1cccc(I)c1 [(53), N-(3-iodobenzyl)-2-(2,4,5-trimethoxyphenyl)-ethan-1-amine] | 50.1 ± 1.9
8 | COc1cc(OC)c(OC)cc1CCNCc1ccccc1-c1cccs1 [(59), N-(2-(thiophen-2-yl)benzyl)-2-(2,4,5-trimethoxyphenyl)-ethan-1-amine] | 34.9 ± 1.6
9 | COc1cc(OC)c(OC)cc1CCNCc1cccc(F)c1F [(65)] | 76.5 ± 2.3

Each molecule was assayed against 5-HT2B (Homo sapiens, UniProt P41595) (assay: BRET Gq dissociation, 5-HT2B). Conditions: not given.
Type: cell-based
Parameters: expressed in transfected cells; host or cells: HEK293T, transient
Experimental: After at least 18-24 hours, transfected cells were plated in poly-lysine coated 96-well white clear bottom cell culture plates in DMEM containing 1% dialyzed FBS at a density of 25-40,000 cells in 200 μL per well and incubated overnight. After approximately 20-24 hours, media was decanted and cells were washed with 60 μL of drug buffer (1×HBSS, 20 mM HEPES, pH 7.4), followed by 60 μL of drug buffer and pre-incubated in a humidified atmosphere at 37° C. before receiving drug stimulation. Drug stimulation was induced by adding 30 μL of a solution of drug (3X) diluted in McCorvy buffer (1×HBSS, 20 mM HEPES, pH 7.4, supplemented with 0.3% BSA fatty acid free, 0.03% ascorbic acid) and plates were incubated at the indicated time and temperature. Fifteen minutes before reading, 10 μL of the RLuc substrate, either coelenterazine h for β-Arrestin recruitment BRET^1 or coelenterazine 400a for Gq dissociation BRET^2 (Prolume/Nanolight, 5 μM final concentration) was addedper well. Plates were read for luminescence at 485 nm and fluorescent eYFP emission at 530 nm for BRET^1 and at 400 nm and fluorescent GFP2 emission at 510 nm for BRET2 at 1 second per well using a Mithras LB940 (Berthold). The BRET ratios of fluorescence/luminescence were calculated per well and were plotted as a function of drug concentration using Graphpad Prism 8 (Graphpad Software Inc., San Diego, CA).

Chain of 5-HT2B (P41595 whole entry): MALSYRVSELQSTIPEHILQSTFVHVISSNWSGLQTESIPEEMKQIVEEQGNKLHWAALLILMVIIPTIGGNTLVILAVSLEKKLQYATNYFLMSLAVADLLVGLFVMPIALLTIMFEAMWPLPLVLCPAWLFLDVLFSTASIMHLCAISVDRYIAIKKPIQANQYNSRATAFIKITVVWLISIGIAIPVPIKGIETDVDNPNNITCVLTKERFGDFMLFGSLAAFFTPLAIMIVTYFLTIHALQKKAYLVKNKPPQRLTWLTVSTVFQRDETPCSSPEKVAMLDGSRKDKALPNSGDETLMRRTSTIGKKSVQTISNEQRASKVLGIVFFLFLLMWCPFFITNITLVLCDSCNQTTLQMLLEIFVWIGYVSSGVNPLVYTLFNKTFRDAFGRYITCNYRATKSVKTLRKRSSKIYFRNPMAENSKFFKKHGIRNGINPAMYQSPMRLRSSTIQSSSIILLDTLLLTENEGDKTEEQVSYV

Row | SMILES | 5-HT2B Gq Dissociation (BRET) EMAX ± SEM (%5-HT) | 5-HT2B Gq Dissociation (BRET) pEC50 ± SEM | EC50 [µM]
10 | COc1cc(OC)c(OC)cc1CCNCc1cccc2ccccc12 [(38)] | No activity | No activity | 
11 | COc1cc2c(cc1CCNCc1cccc3ccccc13)OCO2 [(39), [2-(6-methoxy-2H-1,3-benzodioxol-5-yl)ethyl][(naphthalen-1-yl)methyl]amine] | No activity | No activity | 
12 | COc1cc(OC)c(OC)cc1CCNCc1cccc(I)c1 [(53), N-(3-iodobenzyl)-2-(2,4,5-trimethoxyphenyl)-ethan-1-amine] |  |  | 0.000724
13 | COc1cc(OC)c(OC)cc1CCNCc1ccccc1-c1cccs1 [(59), N-(2-(thiophen-2-yl)benzyl)-2-(2,4,5-trimethoxyphenyl)-ethan-1-amine] | No activity | No Activity | 
14 | COc1cc(OC)c(OC)cc1CCNCc1cccc(F)c1F [(65)] | No activity | No activity | 

Same assay, conditions: read-out: 5-HT2B Gq Dissociation (BRET) EMAX ± SEM (%5-HT)

Row | SMILES | Emax [%]
15 | COc1cc(OC)c(OC)cc1CCNCc1cccc(I)c1 [(53), N-(3-iodobenzyl)-2-(2,4,5-trimethoxyphenyl)-ethan-1-amine] | 20.3 ± 2.8

What follows are molecules tested against T2, 5-HT2C (Homo sapiens, UniProt P28335) (assay: BRET Gq dissociation, 5-HT2C). Conditions: not given.
T2 sequence (P28335 33-458): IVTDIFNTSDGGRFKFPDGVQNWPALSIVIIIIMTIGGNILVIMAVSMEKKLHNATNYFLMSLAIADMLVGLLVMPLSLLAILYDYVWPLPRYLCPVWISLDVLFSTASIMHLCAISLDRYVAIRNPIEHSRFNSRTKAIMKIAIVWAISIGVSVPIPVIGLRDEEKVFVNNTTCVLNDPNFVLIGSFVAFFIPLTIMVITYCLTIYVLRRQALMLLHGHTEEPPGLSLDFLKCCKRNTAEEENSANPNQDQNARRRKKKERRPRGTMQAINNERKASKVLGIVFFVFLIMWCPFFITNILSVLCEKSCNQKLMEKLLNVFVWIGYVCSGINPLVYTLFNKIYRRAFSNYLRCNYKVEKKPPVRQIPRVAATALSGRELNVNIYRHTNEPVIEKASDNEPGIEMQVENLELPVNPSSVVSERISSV
Type: cell-based
Parameters: expressed in transfected cells; host or cells: HEK293T, transient
Experimental: as §1

Row | SMILES | EC50 [µM] | 5-HT2C Gq Dissociation (BRET) EMAX ± SEM (%5-HT) | 5-HT2C Gq Dissociation (BRET) pEC50 ± SEM
16 | COc1cc(OC)c(OC)cc1CCNCc1cccc(I)c1 [(53), N-(3-iodobenzyl)-2-(2,4,5-trimethoxyphenyl)-ethan-1-amine] | 0.0151 |  | 
17 | COc1cc(OC)c(OC)cc1CCNCc1ccccc1-c1cccs1 [(59), N-(2-(thiophen-2-yl)benzyl)-2-(2,4,5-trimethoxyphenyl)-ethan-1-amine] |  | No Activity | No Activity

Same assay, conditions: read-out: 5-HT2C Gq Dissociation (BRET) EMAX ± SEM (%5-HT)

Row | SMILES | Emax [%]
18 | COc1cc(OC)c(OC)cc1CCNCc1cccc2ccccc12 [(38)] | 64.4 ± 2
19 | COc1cc2c(cc1CCNCc1cccc3ccccc13)OCO2 [(39), [2-(6-methoxy-2H-1,3-benzodioxol-5-yl)ethyl][(naphthalen-1-yl)methyl]amine] | 90.5 ± 2.3
20 | COc1cc(OC)c(OC)cc1CCNCc1cccc(I)c1 [(53), N-(3-iodobenzyl)-2-(2,4,5-trimethoxyphenyl)-ethan-1-amine] | 91.5 ± 3.2
21 | COc1cc(OC)c(OC)cc1CCNCc1cccc(F)c1F [(65)] | 83.3 ± 6.3

Same assay, conditions: read-out: 5-HT2C Gq Dissociation (BRET) pEC50 ± SEM (converted)

Row | SMILES | EC50 [µM]
22 | COc1cc(OC)c(OC)cc1CCNCc1cccc2ccccc12 [(38)] | 0.0126
23 | COc1cc2c(cc1CCNCc1cccc3ccccc13)OCO2 [(39), [2-(6-methoxy-2H-1,3-benzodioxol-5-yl)ethyl][(naphthalen-1-yl)methyl]amine] | 0.017
24 | COc1cc(OC)c(OC)cc1CCNCc1cccc(F)c1F [(65)] | 0.2

These molecules were tested on male C57BL/6J mice (assay: Head-twitch response (HTR) in mice). Conditions: not given.
Type: in vivo, mouse
Experimental: Male C57BL/6J mice (6-8 weeks old) from Jackson Labs (Bar Harbor, ME, USA) were used for the behavioral experiments. The mice were housed on a reversed light-dark cycle (lights on at 1900 h, off at 0700 h) in an AAAC-approved vivarium at the University of California San Diego. Mice were housed up to four per cage in a climate-controlled room and with food and water provided ad libitum except during behavioral testing. Testing was performed between 1000 and 1800 h (during the dark phase of the light-dark cycle). The studies were conducted in accordance with National Institutes Health (NIH) guidelines and were approved by the University of California San Diego Institutional Animal Care and Use Committee.
The mice were allowed to recover from the magnet implantation surgeries for at least 1 week prior to behavioral testing. HTR experiments were conducted in a well-lit room, and the mice were allowed to habituate to the room for at least 1 h prior to testing. Head twitches was assessed in a 12-cm diameter glass cylinder surrounded by a magnetometer coil. Coil voltage was low-pass filtered (2 kHz), amplified, and digitized (20-kHz sampling rate) using a Powerlab/8SP with LabChart v 7.3.2 (ADInstruments, Colorado Springs, CO, USA). […] HTR counts were analyzed using one-way ANOVAs. Dunnett's test was used for post hoc comparisons.

Row | SMILES | Induction of the HTR in mice (in words) | Max HTR response during a 30-min assessment (maximum counts ÷ baseline response)
25 | COc1cc(OC)c(OC)cc1CCNCc1cccc2ccccc12 [(38)] | failed to induce a HTR | 1.0-fold increase
26 | COc1cc2c(cc1CCNCc1cccc3ccccc13)OCO2 [(39), [2-(6-methoxy-2H-1,3-benzodioxol-5-yl)ethyl][(naphthalen-1-yl)methyl]amine] | failed to induce a HTR | 1.4-fold increase
27 | COc1cc(OC)c(OC)cc1CCNCc1cccc(I)c1 [(53), N-(3-iodobenzyl)-2-(2,4,5-trimethoxyphenyl)-ethan-1-amine] | failed to induce the HTR | 1.1-fold increase
28 | COc1cc(OC)c(OC)cc1CCNCc1ccccc1-c1cccs1 [(59), N-(2-(thiophen-2-yl)benzyl)-2-(2,4,5-trimethoxyphenyl)-ethan-1-amine] | lacked a HTR | 1.6-fold increase

Same assay, conditions: Mus musculus, read-out: HTR ED50 mg/kg (95% CI), SC, except DOI and 25D-NBOMe IP

Row | SMILES | ED50 [mg/kg]
29 | COc1cc(OC)c(OC)cc1CCNCc1cccc2ccccc12 [(38)] | > 30
30 | COc1cc2c(cc1CCNCc1cccc3ccccc13)OCO2 [(39), [2-(6-methoxy-2H-1,3-benzodioxol-5-yl)ethyl][(naphthalen-1-yl)methyl]amine] | > 30
31 | COc1cc(OC)c(OC)cc1CCNCc1cccc(I)c1 [(53), N-(3-iodobenzyl)-2-(2,4,5-trimethoxyphenyl)-ethan-1-amine] | > 30
32 | COc1cc(OC)c(OC)cc1CCNCc1ccccc1-c1cccs1 [(59), N-(2-(thiophen-2-yl)benzyl)-2-(2,4,5-trimethoxyphenyl)-ethan-1-amine] | > 30

These molecules were tested against T1, 5-HT2A (assay: cell-based). Conditions: BRET, mean ± SEM; read-out: 5-HT2A β-arrestin recruitment pEC50 (converted).
Parameters: expressed in transfected cells; host or cells: HEK293T, transient
Experimental: as §1

Row | SMILES | EC50 [µM]
33 | COc1cc(OC)c(OC)cc1CCNCc1cccc2ccccc12 [(38)] | 0.00162
34 | COc1cc2c(cc1CCNCc1cccc3ccccc13)OCO2 [(39), [2-(6-methoxy-2H-1,3-benzodioxol-5-yl)ethyl][(naphthalen-1-yl)methyl]amine] | 0.00589
35 | COc1cc(OC)c(OC)cc1CCNCc1ccccc1-c1cccs1 [(59), N-(2-(thiophen-2-yl)benzyl)-2-(2,4,5-trimethoxyphenyl)-ethan-1-amine] | 0.00851
36 | COc1cc(OC)c(OC)cc1CCNCc1cccc(F)c1F [(65)] | 0.17

Same assay, conditions: read-out: 5-HT2A β-arrestin Emax (% 5-HT), BRET, mean ± SEM

Row | SMILES | Emax [%]
37 | COc1cc(OC)c(OC)cc1CCNCc1cccc2ccccc12 [(38)] | 74.9 ± 1.9
38 | COc1cc2c(cc1CCNCc1cccc3ccccc13)OCO2 [(39), [2-(6-methoxy-2H-1,3-benzodioxol-5-yl)ethyl][(naphthalen-1-yl)methyl]amine] | 80.1 ± 2.5
39 | COc1cc(OC)c(OC)cc1CCNCc1cccc(I)c1 [(53), N-(3-iodobenzyl)-2-(2,4,5-trimethoxyphenyl)-ethan-1-amine] | 82.7 ± 5.4
40 | COc1cc(OC)c(OC)cc1CCNCc1ccccc1-c1cccs1 [(59), N-(2-(thiophen-2-yl)benzyl)-2-(2,4,5-trimethoxyphenyl)-ethan-1-amine] | 100 ± 3.5
41 | COc1cc(OC)c(OC)cc1CCNCc1cccc(F)c1F [(65)] | 101 ± 2.7
